# Reference: patent US5223169A, “Hydrolase surfactant systems and their use in laundering” (priority 1991, dated 1993)
# Key:
# Assay in all cases: pH-stat assay of triglyceride emulsion hydrolysis; critical oil-to-surfactant ratio
# [1] = test system: enzyme from P. putida ATCC 53552 (lipase GC-1065); assay type: biochemical, Pseudomonas putida
# Source text: (§1) To determine the critical ratio for any specific enzyme-surfactant combination, aliquots of an aqueous solution, each containing a determined (constant) amount of the enzyme which is effective in the absence of any surfactant to hydrolyze the triglycerides in an oily stain on a determined (constant) amount of a fabric soiled by a determined (constant) amount of a triglyceride oil, are mixed with a determined (constant) amount of a surfactant which is within the range of the amounts conventionally present in home laundry solutions, e.g., from about 0.2 to 1.5. mM, and which is effective to inhibit the hydrolyzing activity of the enzyme. To the aliquots are added a hydrolysis activator, e.g., trioctanoin, in increasing amounts and the hydrolyzing activity of the enzyme in the various solutions is determined.
# (§2) The experiments determining enzyme activity, such as those set out in Tables IA and IB, were carried out as follows:
# (§3) The desired amount of triglyceride was weighed into an appropriate size beaker, on a Mettler balance (model number AE163). The corresponding amount of surfactant was added to the triglyceride, from a previously prepared aqueous surfactant stock solution, and the triglyceride and surfactant mixed manually. The sample was then adjusted to the desired weight using doubly distilled H2 O. Emulsification of the sample was carried out, prior to assaying enzyme activity, with a probe sonicator (Braun-Sonic model 2000), on ice, for approx. 2 minutes.
# (§4) (ii) Enzyme Activity Measurement:
# (§5) This was achieved by monitoring the rate of acid liberation, from the enzymatic hydrolysis of the triglycerides in the emulsion. The assay was initiated by adding approx. 2 ppm lipase to 10 ml of the prepared emulsion. The acid liberated was monitored by autotitration, on a Radiometer pH-stat (model number ABU80) to an endpoint of a pH of 10. Initial rates were recorded for the first 5 minutes of the reaction, and the reaction rates reported as μmole H^+ titrated . min ^-1 mgE^-1. Occasionally enzyme activity is reported as % total oil hydrolyzed in 14 min. In these examples, the reaction was allowed to run for 14 min. and the amount of acid titrated recorded. The % total oil (triglyceride) hydrolyzed was then calculated by dividing the recorded value with the theoretically calculated value assuming three equivalents of oleic acid was produced for each triglyceride equivalent. All assays were run at ambient temperatures.
# Enzyme Amano P = target: T1, Enzyme Amano P (Burkholderia cepacia, UniProt P22088); assay type: biochemical, P. fluorescens
# T1 construct: purchased Amano Co
# Source text: as §1, §2, §3, §4, §5
# Enzyme Amano 68S = assay type: biochemical, P. sp.; settings: for Critical Ratio / Enzyme Activity: surfactant conc.: SDS 1 mM
# Source text: as §1, §2, §3, §4, §5
# Enzyme Lipolase = target: T2, Enzyme Lipolase (Thermomyces lanuginosus, UniProt O59952); assay type: biochemical, A. oryzae; settings: for Critical Ratio, LIPOLASE: trioctanoin emulsions, lipase ~2 ppm; for R, critical (minimum activating molar) ratio, LIPOLASE: triolein emulsions
# T2 construct: purchased Novo Industri; host or cells: Aspergillus oryzae
# T2 sequence (O59952 23-291): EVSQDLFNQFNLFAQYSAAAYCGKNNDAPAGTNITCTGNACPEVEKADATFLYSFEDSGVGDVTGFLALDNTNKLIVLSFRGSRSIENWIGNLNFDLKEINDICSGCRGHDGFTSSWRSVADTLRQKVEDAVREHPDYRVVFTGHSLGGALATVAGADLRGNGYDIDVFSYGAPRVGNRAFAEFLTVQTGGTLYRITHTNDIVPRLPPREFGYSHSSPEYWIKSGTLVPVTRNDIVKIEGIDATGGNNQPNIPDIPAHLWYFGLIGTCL
# Source text: as §1, §2, §3, §4, §5
# [2] = Table II, trioctanoin, surfactant conc.: SDS 2 mM, C12 LAS 1 mM, Neodol 25-3S 2 mM, Neodol 25-9 0.5 mM, Surfonic JL80X 0.5 mM, Triton X100 2 mM
# [3] = Table Summary, second block of lines (corresponds to triolein Tables VI-IX)
# [4] = Table VI, triolein, surfactant conc.: SDS 1 mM, C12 LAS 0.5 mM, Neodol 25-3S 1 mM, Neodol 25-9 0.5 mM, Surfonic JL80X 0.5 mM
# [5] = triolein emulsions, high conc.: SDS 10 mM, C12 LAS 5 mM, Neodol 25-9 5 mM, Neodol 25-3S 5 mM, Surfonic JL-80X 2.5 mM
# [6] = Table III, trioctanoin, surfactant conc.: SDS 2 mM, C12 LAS 1 mM, Neodol 25-3S 2 mM, Neodol 25-9 0.5 mM, Surfonic JL80X 0.5 mM
# [7] = Table IV, trioctanoin, C12 LAS 0.2 mM, Neodol 25-3S 0.5 mM, Neodol 25-9 0.5 mM, Surfonic JL80X 0.5 mM
# [8] = Table VIII, triolein, C12 LAS 0.5 mM, Neodol 25-3S 0.5 mM, Neodol 25-9 0.5 mM, Surfonic JL80X 2.5 mM
# T1 sequence (P22088 45-364): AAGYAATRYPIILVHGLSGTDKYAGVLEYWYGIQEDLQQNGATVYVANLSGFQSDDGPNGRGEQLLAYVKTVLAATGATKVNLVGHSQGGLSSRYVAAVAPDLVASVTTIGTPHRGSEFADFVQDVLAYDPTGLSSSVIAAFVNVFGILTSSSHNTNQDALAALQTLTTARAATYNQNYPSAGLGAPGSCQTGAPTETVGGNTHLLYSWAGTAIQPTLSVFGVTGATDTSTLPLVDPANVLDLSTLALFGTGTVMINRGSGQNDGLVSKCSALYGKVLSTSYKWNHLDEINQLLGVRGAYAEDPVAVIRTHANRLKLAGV
smiles,measurement,setting,value
CCCCCCCCCCCCc1ccc(S(=O)(=O)O)cc1 [C12 LAS],Critical Ratio,[1]; [2],5-10
same,Enzyme Activity,[1]; [2],250 μmole H^+ released min^-1 mgE^
same,"critical ratio class, enzyme From ATCC 53552",[1]; [3],0 (means a critical ratio of 1.0-10)
same,Critical Ratio,[1]; [4],5-10
same,Enzyme Activity,[1]; [4],50 μmole H^+ released min^-1 mgE^
same,Critical Ratio,"[1]; Table XVIII, triolein, Pseudomonas putida enzyme, surfactant 0.5 mM",5-10
same,Critical Ratio,"[1]; Table XVIII, triolein, Pseudomonas putida enzyme, surfactant 5.0 mM",1-5
same,"Specific Activity determined from initial rates, GC-1065, High","[1]; trioctanoin emulsions, high surfactant conc. as E41",250 μeq acid/min.mg
same,"Critical Ratio, GC-1065, High","[1]; trioctanoin emulsions, lipase ~2 ppm, high surfactant conc.: SDS 10 mM, C12 LAS 5 mM, Neodol 25-9 5 mM, Neodol 25-3S 10 mM, Surfonic JL-80X 5 mM, Triton X-100 10 mM, C16 DAPS 10 mM",5-10
same,"Critical Ratio, GC-1065, Low","[1]; trioctanoin emulsions, lipase ~2 ppm, low surfactant conc.: SDS 2 mM, C12 LAS 1 mM, Neodol 25-9 0.5 mM, Neodol 25-3S 2 mM, Surfonic JL-80X 0.5 mM, Triton X-100 2 mM, C16 DAPS 0.5 mM",2-10
same,"Specific Activity determined from initial rates, GC-1065, Low","[1]; trioctanoin emulsions, low surfactant conc. as E40",250 μeq acid/min.mg
same,"Activity (specific hydrolysis activity from initial rates), GC-1065, High","[1]; triolein emulsions, high conc. as E55",60 μeq acid/min./mg
same,"R, critical (minimum activating molar) ratio, GC-1065, High",[1]; [5],1-5
same,"Activity (specific hydrolysis activity from initial rates), GC-1065, Low","[1]; triolein emulsions, low conc. as E54",50 μeq acid/min./mg
same,"R, critical (minimum activating molar) ratio, GC-1065, Low","[1]; triolein emulsions, low conc.: SDS 1 mM, C12 LAS 0.5 mM, Neodol 25-9 0.5 mM, Neodol 25-3S 1 mM, Surfonic JL-80X 0.5 mM",5-10
same,Critical Ratio,Enzyme Amano P; [6],5-20
same,Enzyme Activity,Enzyme Amano P; [6],70 μmole H^+ released min^-1 mgE^
same,"critical ratio class, Amano P",Enzyme Amano P; [3],- (means a critical ratio of 10-100)
same,Enzyme Activity,"Enzyme Amano P; Table VII, triolein, surfactant conc.: SDS 1 mM, others 0.5 mM",13 μmole H^+ released min^-1 mgE^
same,"Specific Activity determined from initial rates, AMANO P, High","Enzyme Amano P; trioctanoin emulsions, high surfactant conc. as E43",70 μeq acid/min.mg
same,"Critical Ratio, AMANO P, High","Enzyme Amano P; trioctanoin emulsions, lipase ~2 ppm, high conc.: SDS 10 mM, C12 LAS 5 mM, Neodol 25-9 5 mM, Neodol 25-3S 20 mM, Surfonic JL-80X 5 mM",5-10
same,"Critical Ratio, AMANO P, Low","Enzyme Amano P; trioctanoin emulsions, lipase ~2 ppm, low conc.: SDS 2 mM, C12 LAS 1 mM, Neodol 25-9 0.5 mM, Neodol 25-3S 2.0 mM, Surfonic JL-80X 0.5 mM",5-10
same,"Specific Activity determined from initial rates, AMANO P, Low","Enzyme Amano P; trioctanoin emulsions, low surfactant conc. as E42",70 μeq acid/min.mg
same,"Activity (specific hydrolysis activity from initial rates), AMANO P, High","Enzyme Amano P; triolein emulsions, high conc. as E57",26 μeq acid/min./mg
same,"R, critical (minimum activating molar) ratio, AMANO P, High",Enzyme Amano P; [5],10-20
same,"Activity (specific hydrolysis activity from initial rates), AMANO P, Low","Enzyme Amano P; triolein emulsions, low conc. as E56",13 μeq acid/min./mg
same,"R, critical (minimum activating molar) ratio, AMANO P, Low","Enzyme Amano P; triolein emulsions, low conc.: SDS 1 mM, others 0.5 mM",10-20
same,Critical Ratio,Enzyme Amano 68S; [7],5-10
same,Enzyme Activity,Enzyme Amano 68S; [7],175 μmole H^+ released min^-1 mgE^
same,"critical ratio class, Amano 68S",Enzyme Amano 68S; [3],- (means a critical ratio of 10-100)
same,Critical Ratio,Enzyme Amano 68S; [8],10-20
same,Enzyme Activity,Enzyme Amano 68S; [8],30 μmole H^+ released min^-1 mgE^
same,"Specific Activity determined from initial rates, AMANO 68S, High","Enzyme Amano 68S; trioctanoin emulsions, high surfactant conc. as E45",200 μeq acid/min.mg
same,"Critical Ratio, AMANO 68S, High","Enzyme Amano 68S; trioctanoin emulsions, lipase ~2 ppm, high conc.: SDS 10 mM, C12 LAS 2 mM, Neodol 25-9 5 mM, Neodol 25-3S 10 mM, Surfonic JL-80X 5 mM",1-5
same,"Critical Ratio, AMANO 68S, Low","Enzyme Amano 68S; trioctanoin emulsions, lipase ~2 ppm, low conc.: SDS 1 mM, C12 LAS 0.2 mM, Neodol 25-9 0.5 mM, Neodol 25-3S 0.5 mM, Surfonic JL-80X 0.5 mM",5-10
same,"Specific Activity determined from initial rates, AMANO 68S, Low","Enzyme Amano 68S; trioctanoin emulsions, low surfactant conc. as E44",175 μeq acid/min.mg
same,"Activity (specific hydrolysis activity from initial rates), AMANO 68S, High","Enzyme Amano 68S; triolein emulsions, high conc. as E59",55 μeq acid/min./mg
same,"R, critical (minimum activating molar) ratio, AMANO 68S, High","Enzyme Amano 68S; triolein emulsions, high conc.: SDS 10 mM, C12 LAS 5 mM, Neodol 25-9 5 mM, Neodol 25-3S 5 mM, Surfonic JL-80X 2.5 mm",10-20
same,"Activity (specific hydrolysis activity from initial rates), AMANO 68S, Low","Enzyme Amano 68S; triolein emulsions, low conc. as E58",30 μeq acid/min./mg
same,"R, critical (minimum activating molar) ratio, AMANO 68S, Low","Enzyme Amano 68S; triolein emulsions, low conc.: SDS 1 mM, C12 LAS 0.5 mM, Neodol 25-9 0.5 mM, Neodol 25-3S 0.5 mM, Surfonic JL-80X 2.5 mM",10-20
same,Critical Ratio,"Enzyme Lipolase; Table IX, triolein, C12 LAS 0.5 mM",30-40
same,"critical ratio class, Lipolase",Enzyme Lipolase; [3],- (means a critical ratio of 10-100)
same,Critical Ratio,"Enzyme Lipolase; Table V, trioctanoin, each surfactant 0.5 mM",0.5-1
same,"Critical Ratio, LIPOLASE",Enzyme Lipolase; surfactant 0.5 mM,0.5-1
same,"Critical Ratio, LIPOLASE",Enzyme Lipolase; surfactant 5 mM,0.5-1
same,"R, critical (minimum activating molar) ratio, LIPOLASE",Enzyme Lipolase; surfactant 0.5 mM,30-40
same,"R, critical (minimum activating molar) ratio, LIPOLASE",Enzyme Lipolase; surfactant 5.0,40-50
